# From patent US4322420A, “Method of using 4-anilinoquinazoline derivatives as analgesic and anti-inflammatory agents” (Sankyo Company Limited, priority 1978, dated 1982)
# Where two headings read alike, the source gives them in different places.
# What was measured:
# [1] = tested on: bradykinin-induced nociceptive stimulus; assay: Test for analgesic activity (bradykinin-induced nociceptive stimulus, oral administration); type: in vivo, female Hartley guinea pigs; details: Cavia porcellus, read-out: ID50 Analgesic Activity
# Procedure: This test employs a bradykinin-induced nociceptive stimulus and is a partially modified version of the test described by Deffenu [J. Pharm. Pharmac. […] The test animals were female Hartley guinea pigs having a body weight of from 350 g to 400 g. The guinea pigs were divided into groups, each group containing from 5 to 10 animals. The test animals were cannulated into the carotid artery retrogradely under the anesthesia induced by intraperitoneal injection of 20 mg/kg of pentobarbital. The guinea pigs were allowed to recover from the anesthesia for at least 3 hours before the tests commenced.
# The test compounds listed in the following Table 1 were administered orally. Immediately before administration of each test compound and then 15, 30, 60, 90 and 120 minutes after administration, each guinea pig was administered with 0.5 μg of bradykinin through the cannula. Turning of the head or twisting of the front legs upon injection was taken as a sign of nociceptive response. The test compounds were administered at various doses and the inhibition rate was determined accordingly.
# (§1) For both of the above tests, the ID50 was calculated by the method of Litchfield and Wilcoxon [J. Pharmacol. Exptl. Therap.
# [2] = tested on: carrageenin-induced oedema of the right hind paw; assay: Test for anti-inflammatory activity (carrageenin-induced paw oedema, oral administration); type: in vivo, Male Wistar-Imamichi rats; details: Rattus norvegicus, read-out: ID50 Anti-inflammatory Activity
# Procedure: Male Wistar-Imamichi rats, each weighing approximately 150 g, were used in these experiments and were divided into groups, each containing 5 animals. Each of the test compounds listed in Table 1 was administered orally, at various doses, to the rats and then, 30 minutes after oral administration,0.05 ml of a 1% w/v carrageenin suspension was subcutaneously injected into the sole of the right hind paw to induce oedema. The volume of the paw was measured both before and 3 hours after injection of the carrageenin by the method of Winder et al [Arch. Int. Pharmacodyn. […] The difference between the volume of the paw before and after injection was defined as the oedema intensity.
# as §1
# [3] = per os, guinea pigs, 0.5 μg bradykinin via carotid cannula before and 15, 30, 60, 90 and 120 min after dosing, Litchfield and Wilcoxon
# [4] = per os, rats, 0.05 ml of 1% w/v carrageenin 30 min after dosing, paw volume 3 hours after injection, Litchfield and Wilcoxon
Structure (SMILES),ED50 [1] [mg/kg],ED50 [2] [mg/kg],"ED50 [1, 3] [mg/kg]","ED50 [2, 4] [mg/kg]"
"CC(=O)Oc1ccccc1C(=O)O [Aspirin, reference compound]",280,145,–,–
"Clc1ccc2c(Nc3ccccc3)ncnc2c1 [Compound 5, 4-Anilino-7-chloroquinazoline]",–,–,25,28
"FC(F)(F)c1ccc2c(Nc3ccccc3)ncnc2c1 [Compound 17, 4-Anilino-7-trifluoromethylquinazoline]",–,–,16.5,20
"CN(c1ccccc1)c1ncnc2cc(Cl)ccc12 [Compound 55, 7-Chloro-4-(N-methylanilino)quinazoline]",–,–,50,36
"CN(c1ccccc1)c1ncnc2cc(C(F)(F)F)ccc12 [Compound 73, 4-(N-Methylanilino)-7-trifluoromethylquinazoline]",–,–,31,15.5
"Cc1cccc(Nc2ccccc2C(=O)O)c1C [Mefenamic acid, reference compound]",–,–,72,50
